The source of these data is US10954232B2, “Pyrazole derivative as ALK5 inhibitor and uses thereof” (HANMI PHARMACEUTICAL CO., LTD., priority 2016, dated 2021).

This test concerns the target T1, ALK5 kinase (Homo sapiens, UniProt P36897).
T1 construct: GST; purchased Thermo Fisher Scientific Solutions
T1 sequence (P36897 34-503): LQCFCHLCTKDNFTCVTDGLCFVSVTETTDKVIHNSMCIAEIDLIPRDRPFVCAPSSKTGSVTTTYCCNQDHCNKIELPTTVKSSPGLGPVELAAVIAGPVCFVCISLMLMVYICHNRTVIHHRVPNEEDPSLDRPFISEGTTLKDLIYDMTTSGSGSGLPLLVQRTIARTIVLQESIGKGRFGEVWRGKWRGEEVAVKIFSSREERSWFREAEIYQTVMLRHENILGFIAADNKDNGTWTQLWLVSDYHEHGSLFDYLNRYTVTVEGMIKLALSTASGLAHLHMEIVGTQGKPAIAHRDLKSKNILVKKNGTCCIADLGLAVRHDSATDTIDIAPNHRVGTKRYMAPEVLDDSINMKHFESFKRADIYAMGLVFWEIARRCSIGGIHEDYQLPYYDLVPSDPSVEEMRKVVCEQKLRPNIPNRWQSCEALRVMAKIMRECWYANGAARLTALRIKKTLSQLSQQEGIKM
Briefly: Activity inhibition test on ALK5 enzyme (LanthaScreen Eu binding kinase assay). The following applies: kinase tracer 178, 60 minutes at room temperature. The protocol: For each of the compounds obtained in Examples 1 to 227, inhibitory activity against ALK5 kinase was measured.
For this, a LanthaScreen Eu binding kinase assay method was used, and ALK5 kinase, a kinase buffer, a kinase tracer 178, and a LanthaScreen Eu-GST binding antibody were all purchased from Thermo Fisher Scientific Solutions. Each of the compounds was made into a 10 mM DMSO solution, and diluted by 1/10 to a concentration of 1 μM to 0.0001 μM with an aqueous solution containing 4% DMSO. The test was performed in 384 well plates (well polystyrene low volume round-bottomed plates). First, 5 μL of the diluted compound solution was added, then 5 μL of the kinase/antibody mixture solution was introduced thereto, and 5 μL of the tracer was introduced thereto. Herein, these were added to each well so that the final kinase concentration became 5 nM, the final Eu-GST binding antibody concentration 2 nM, and the kinase tracer 178 concentration 10 nM, and the result was reacted in a stirrer for 60 minutes at room temperature. Then a fluorescence value was measured using a fluorescence meter (molecular device) ([…], 665 nm emission filter). Herein, as for the degree of compound activity to inhibit the kinase reaction, a phosphorylate rate was calculated from 0% to 100% with respect to a control group according to the protocol included in the kit, and a 50% inhibitory concentration (IC50) value was calculated by obtaining the x-axis concentration in the region where 50% activity was inhibited.
(In general: In TR-FRET formats the signal depends on donor and acceptor labels being close together.)
By IC50 is commonly meant the concentration needed to halve the response being measured. Read a high IC50 as weaker potency. `Cc1cccc(-n2nc(C(=O)Nc3ccc(F)nc3)cc2-c2ccc3ncsc3c2)n1` [Example 71, 5-(benzo[d]thiazol-6-yl)-N-(6-fluoropyridin-3-yl)-1-(6-methylpyridin-2-yl)-1H-pyrazole-3-carboxyamide] yielded an IC50 of 8 nM.

In the case of `CCCCNc1ccc(NC(=O)c2cc(-c3ccc4ncsc4c3)n(-c3cccc(C)n3)n2)cc1` [Example 87, 5-(benzo[d]thiazol-6-yl)-N-(4-(butylamino)phenyl)-1-(6-methylpyridin-2-yl)-1H-pyrazole-3-carboxyamide], the IC50 turned out to be 9.1 nM.

Molecule `Cc1cccc(-n2nc(C(=O)Nc3ccc(OC(F)(F)F)cc3)cc2-c2ccc3ncsc3c2)n1` [Example 5, 5-(benzo[d]thiazol-6-yl)-1-(6-methylpyridin-2-yl)-N-(4-(trifluoromethoxy)phenyl)-1H-pyrazole-3-carboxyamide] showed an IC50 of 10 to 100 nM.

`Cc1cccc(NC(=O)c2cc(-c3ccc4ncnn4c3)n(-c3cccc(C)n3)n2)c1` [Example 116, 5-([1,2,4]triazolo[1,5-α]pyridin-6-yl)-1-(6-methylpyridin-2-yl)-N-(m-tolyl)-1H-pyrazole-3-carboxyamide] gave an IC50 of roughly 10 nM.

Molecule `Cc1cccc(-n2nc(C(=O)Nc3cc(F)cc(F)c3)cc2-c2ccc3ncnn3c2)n1` [Example 137, 5-([1,2,4]triazolo[1,5-α]pyridin-6-yl)-N-(3,5-difluorophenyl)-1-(6-methylpyridin-2-yl)-1H-pyrazole-3-carboxyamide] returned an IC50 of 10 to 100 nM.

The molecule `Cc1cccc(-n2nc(C(=O)Nc3ccc(F)cc3F)cc2-c2ccc3nccnc3c2)n1` [Example 187, N-(2,4-difluorophenyl)-1-(6-methylpyridin-2-yl)-5-(quinoxalin-6-yl)-1H-pyrazole-3-carboxyamide] had an IC50 of 10 to 100 nM.

Molecule `Cc1cccc(-n2nc(C(=O)Nc3cccc(NS(=O)(=O)C4CC4)c3)cc2-c2ccc3ncsc3c2)n1` [Example 54, 5-(benzo[d]thiazol-6-yl)-N-(3-(cyclopropanesulfonamido)phenyl)-1-(6-methylpyridin-2-yl)-1H-pyrazole-3-carboxyamide] gave an IC50 of 2 nM. In other words, the single-digit nanomolar range.

For `Cc1cccc(-n2nc(C(=O)NCc3ccccc3F)cc2-c2ccc3nccnc3c2)n1` [Example 198, N-(2-fluorobenzyl)-1-(6-methylpyridin-2-yl)-5-(quinoxalin-6-yl)-1H-pyrazole-3-carboxyamide], the IC50 is less than 100 nM.

In turn, `Cc1cccc(-n2nc(C(=O)Nc3cccc(F)c3)cc2-c2ccc3ncsc3c2)n1` [Example 28, 5-(benzo[d]thiazol-6-yl)-N-(3-fluorophenyl)-1-(6-methylpyridin-2-yl)-1H-pyrazole-3-carboxyamide] yielded an IC50 of 4.5 nM.

In the case of `COc1ccc(NC(=O)c2cc(-c3ccc4nccnc4c3)n(-c3cccc(C(F)(F)F)n3)n2)cc1` [Example 205], the IC50 was greater than 100 nM.

In turn, `Cc1cccc(-n2nc(C(=O)Nc3ccc(Cl)nc3)cc2-c2ccc3ncnn3c2)n1` [Example 153, 5-([1,2,4]triazolo[1,5-α]pyridin-6-yl)-N-(6-chloropyridin-3-yl)-1-(6-methylpyridin-2-yl)-1H-pyrazole-3-carboxyamide] yielded an IC50 of 25 nM. That is a double-digit nanomolar value.

In the case of `COCCOc1ccc(NC(=O)c2cc(-c3ccnc4ccccc34)n(-c3cccc(C)n3)n2)cc1` [Example 217, N-(4-(2-methoxyethoxy)phenyl)-1-(6-methylpyridin-2-yl)-5-(quinolin-4-yl)-1H-pyrazole-3-carboxyamide], the IC50 is 18 nM.

Turning to `Cc1cccc(-n2nc(C(=O)Nc3ccc(F)c(F)c3)cc2-c2ccc3ncnn3c2)n1` [Example 136, 5-([1,2,4]triazolo[1,5-α]pyridin-6-yl)-N-(3,4-difluorophenyl)-1-(6-methylpyridin-2-yl)-1H-pyrazole-3-carboxyamide], the IC50 is roughly 10 nM.

The molecule `Cc1cccc(-n2nc(C(=O)Nc3cccc(Br)c3)cc2-c2ccc3ncnn3c2)n1` [Example 131, 5-([1,2,4]triazolo[1,5-α]pyridin-6-yl)-N-(3-bromophenyl)-1-(6-methylpyridin-2-yl)-1H-pyrazole-3-carboxyamide] showed an IC50 of 10 to 100 nM.

For `Cc1cccc(-n2nc(C(=O)Nc3cccc(C(F)(F)F)c3)cc2-c2ccc3nccnc3c2)n1` [Example 181, 1-(6-methylpyridin-2-yl)-5-(quinoxalin-6-yl)-N-(3-(trifluoromethyl)phenyl)-1H-pyrazole-3-carboxyamide], the IC50 was roughly 100 nM.

The molecule `Cc1cccc(-n2nc(C(=O)Nc3ccc(S(=O)(=O)NCC(F)(F)F)cc3)cc2-c2ccc3ncsc3c2)n1` [Example 58, 5-(benzo[d]thiazol-6-yl)-1-(6-methylpyridin-2-yl)-N-(4-(N-(2,2,2-trifluoroethyl)sulfamoyl)phenyl)-1H-pyrazole-3-carboxyamide] yielded an IC50 of 5.6 nM.

Turning to `CSc1ccc(NC(=O)c2cc(-c3ccc4ncnn4c3)n(-c3cccc(C)n3)n2)cc1` [Example 144], the IC50 lay within 10 to 100 nM.

`COc1cc(NC(=O)c2cc(-c3ccc4ncsc4c3)n(-c3cccc(C)n3)n2)ccc1F` [Example 8, 5-(benzo[d]thiazol-6-yl)-N-(4-fluoro-3-methoxyphenyl)-1-(6-methylpyridin-2-yl)-1H-pyrazole-3-carboxyamide] displayed an IC50 of 4.7 nM.

In turn, `CSc1cccc(NC(=O)c2cc(-c3ccc4ncnn4c3)n(-c3cccc(C)n3)n2)c1` [Example 143] came in with an IC50 of 6.6 nM.

`COCCOc1ccc(NC(=O)c2cc(-c3ccc4nccnc4c3)n(-c3cccc(C)n3)n2)cc1` [Example 167, N-(4-(2-methoxyethoxy)phenyl)-1-(6-methylpyridin-2-yl)-5-(quinoxalin-6-yl)-1H-pyrazole-3-carboxyamide] registered an IC50 of no more than 100 nM.

`Cc1cccc(-n2nc(C(=O)Nc3cccc(C#N)c3)cc2-c2ccc3ncnn3c2)n1` [Example 120, 5-([1,2,4]triazolo[1,5-α]pyridin-6-yl)-N-(3-cyanophenyl)-1-(6-methylpyridin-2-yl)-1H-pyrazole-3-carboxyamide] gave an IC50 of 10 to 100 nM.

`Cc1cccc(-n2nc(C(=O)Nc3ccc(CS(N)(=O)=O)cc3)cc2-c2ccc3ncsc3c2)n1` [Example 61, 5-(benzo[d]thiazol-6-yl)-1-(6-methylpyridin-2-yl)-N-(4-(sulfamoylmethyl)phenyl)-1H-pyrazole-3-carboxyamide] came in with an IC50 of 10 to 100 nM.

`Cc1cccc(-n2nc(C(=O)Nc3ccc(S(=O)(=O)C4CC4)cc3)cc2-c2ccc3ncsc3c2)n1` [Example 43, 5-(benzo[d]thiazol-6-yl)-N-(4-(cyclopropylsulfonyl)phenyl)-1-(6-methylpyridin-2-yl)-1H-pyrazole-3-carboxyamide] yielded an IC50 of 4.4 nM.

In the case of `Cc1cccc(-n2nc(C(=O)Nc3cccc(C#N)c3)cc2-c2ccc3nccnc3c2)n1` [Example 175, N-(3-cyanophenyl)-1-(6-methylpyridin-2-yl)-5-(quinoxalin-6-yl)-1H-pyrazole-3-carboxyamide], the 50% inhibitory concentration (IC50) was less than 100 nM.

`Cc1cccc(-n2nc(C(=O)Nc3ccc(S(=O)(=O)C4CC4)cc3)cc2-c2ccc3nonc3c2)n1` [Example 218, 5-(benzo[c][1,2,5]oxadiazol-5-yl)-N-(4-(cyclopropylsulfonyl)phenyl)-1-(6-methylpyridin-2-yl)-1H-pyrazole-3-carboxyamide] registered an IC50 of 10 to 100 nM.
